This assay concerns human mixed lymphocyte reaction (MLR). Put plainly: human mixed lymphocyte reaction (MLR) assay. The format is cell-based. The conditions noted are these: immunosuppressant activity, read-out: Human MLR IC50 ± S.E.M. The procedure:
The immunosuppressant activity of the compounds of the present invention was determined using the human mixed lymphocyte reaction (MLR) assay described by Kino, T. et al. in Transplantation Proceedings, XIX(5):36-39. Suppl. 6 (1987). […]

Turning to `CO[C@H]1C[C@@H]2CC[C@@H](C)[C@@](O)(O2)C(=O)C(=O)N2CCCC[C@H]2C(=O)O[C@H]([C@H](C)C[C@@H]2CC[C@@H](O)[C@H](OC)C2)CC(=O)[C@H](C)/C=C(\C)[C@@H](O)[C@@H](OC)C(=O)[C@H](C)C[C@H](C)/C=C/C=C/C=C/1C` [Rapamycin, reference compound], the IC50 is 0.91 ± 0.36 nM.

The term IC50 denotes the concentration that inhibits the measured activity by half.

Values taken from patent publication EP1015459B9 (ABBOTT LABORATORIES, priority 1997, dated 1999).
